Patent US20250129104A1, “7H-PYRROLO[2,3-D]PYRIMIDINES AND PREPARATION AND USES THEREOF” (BioSplice Therapeutics, Inc., priority 2021, published 2025)

target: recombinant DYRK1A kinase (Homo sapiens (Human), UniProt Q13627); assay: DYRK1A kinase assay (Ser/Thr 18 peptide Z-lyte FRET assay); format: biochemical; details: DYRK1A kinase activity; 15 μM ATP, 1 h room temperature; method text calls the value IC50
Method in brief: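 FRET Z-lyte read-out (coumarin/fluorescein ratio, % phosphorylation) after 1 h development; IC50 from non-linear curve fit. Reaction: 0.25 μg/mL recombinant human DYRK1A, Ser/Thr 18 peptide 4 μM, ATP 15 μM, compound in 11-point 1:3 series from 10 μM, 1 h, room temperature, duplicate wells.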

| EC50 | Molecule |
| --- | --- |
| 4.1 nM | CN1CCN(c2cccc(Nc3ncc4c(-c5ccc6ncccc6c5)c[nH]c4n3)c2)CC1 [Compound 1891, N-(3-(4-Methylpiperazin-1-yl)phenyl)-5-(quinolin-6-yl)-7H-pyrrolo[2,3-d]pyrimidin-2-amine] |
| 230 nM | COc1nc(N[C@H]2CC[C@H](OC)CC2)nc2[nH]cc(-c3ccn4nccc4c3)c12 [Compound 3310, 4-Methoxy-N-(trans-4-methoxycyclohexyl)-5-(pyrazolo[1,5-a]pyridin-5-yl)-7H-pyrrolo[2,3-d]pyrimidin-2-amine] |
| 462 nM | COc1nc(N[C@H]2CC[C@H](OC(F)F)CC2)nc2[nH]cc(-c3ccn4nccc4c3)c12 [Compound 2308, N-(trans-4-(Difluoromethoxy)cyclohexyl)-4-methoxy-5-(pyrazolo[1,5-a]pyridin-5-yl)-7H-pyrrolo[2,3-d]pyrimidin-2-amine] |
| 28.4 nM | [2H]C([2H])([2H])O[C@H]1CC[C@@H](Nc2nc(OC)c3c(-c4ccc5nccn5c4)c[nH]c3n2)CC1 [Compound 2242, 5-(Imidazo[1,2-a]pyridin-6-yl)-4-methoxy-N-(cis-4-(methoxy-d3)cyclohexyl)-7H-pyrrolo[2,3-d]pyrimidin-2-amine] |
| 8.5 nM | Cc1nc2c(F)cc(-c3c[nH]c4nc(NCC5(F)CCCCC5)ncc34)cc2n1C(C)C [Compound 526, 5-(4-Fluoro-1-isopropyl-2-methyl-1H-benzo[d]imidazol-6-yl)-N-((1-fluorocyclohexyl)methyl)-7H-pyrrolo[2,3-d]pyrimidin-2-amine] |
| 2.9 nM | Nc1ncc2c(-c3ccc4ncccc4c3)c[nH]c2n1 [Compound 1862, 5-(Quinolin-6-yl)-7H-pyrrolo[2,3-d]pyrimidin-2-amine] |
| 2.6 nM | C[C@]1(O)CC[C@@H](Nc2ncc3c(-c4ccc5nccn5n4)c[nH]c3n2)CC1 [Compound 3224, (1s,4s)-4-((5-(Imidazo[1,2-b]pyridazin-6-yl)-7H-pyrrolo[2,3-d]pyrimidin-2-yl)amino)-1-methylcyclohexan-1-ol] |
| 227 nM | Cc1nc2c(F)cc(-c3c[nH]c4nc(N5CCC5)ncc34)cc2n1C(C)C [Compound 494, 2-(Azetidin-1-yl)-5-(4-fluoro-1-isopropyl-2-methyl-1H-benzo[d]imidazol-6-yl)-7H-pyrrolo[2,3-d]pyrimidine] |
| 76.3 nM | CC(C)(F)CNc1ncc2c(-c3cc(F)c4ncnn4c3)c[nH]c2n1 [Compound 774, N-(2-Fluoro-2-methylpropyl)-5-(8-fluoro-[1,2,4]triazolo[1,5-a]pyridin-6-yl)-7H-pyrrolo[2,3-d]pyrimidin-2-amine] |
| 1.1 nM | COc1nc(N)nc2[nH]cc(-c3ccn4nccc4c3)c12 [Compound 3291, 4-methoxy-5-(pyrazolo[1,5-a]pyridin-5-yl)-7H-pyrrolo[2,3-d]pyrimidin-2-amine] |
| 3.4 nM | C[C@@H](Nc1ncc2c(-c3ccc4nccn4n3)c[nH]c2n1)C1CC1 [Compound 918, (R)—N-(1-Cyclopropylethyl)-5-(imidazo[1,2-b]pyridazin-6-yl)-7H-pyrrolo [2,3-d]pyrimidin-2-amine] |
| 1.9 nM | CNc1nc(NC2CCC3(CC2)COC3)nc2[nH]cc(-c3ccn4nccc4n3)c12 [Compound 3461, N^4-Methyl-5-(pyrazolo[1,5-a]pyrimidin-5-yl)-N^2-(2-oxaspiro[3.5]nonan-7-yl)-7H-pyrrolo[2,3-d]pyrimidine-2,4-diamine] |
| 1.5 nM | CCOc1nc(N[C@H]2CC[C@@H](O)CC2)nc2[nH]cc(-c3ccc4nnn(C)c4c3)c12 [Compound 2197, cis-4-((4-Ethoxy-5-(1-methyl-1H-benzo[d][1,2,3]triazol-6-yl)-7H-pyrrolo[2,3-d]pyrimidin-2-yl)amino)cyclohexan-1-ol] |
| 2.1 nM | COc1nc(N[C@H]2CC[C@@H](OCC(F)F)CC2)nc2[nH]cc(-c3ccc4nccn4c3)c12 [Compound 2176, N-(cis-4-(2,2-Difluoroethoxy)cyclohexyl)-5-(imidazo[1,2-a]pyridin-6-yl)-4-methoxy-7H-pyrrolo[2,3-d]pyrimidin-2-amine] |
| 41.6 nM | OCc1cnc2c(F)cc(-c3c[nH]c4nc(C5CC5)ncc34)cn12 [Compound 363, (6-(2-Cyclopropyl-7H-pyrrolo[2,3-d]pyrimidin-5-yl)-8-fluoroimidazo[1,2-a]pyridin-3-yl)methanol] |
| 23 nM | FC(F)(F)CNc1ncc2c(-c3ccc4ncnn4c3)c[nH]c2n1 [Compound 733, 5-([1,2,4]Triazolo[1,5-a]pyridin-6-yl)-N-(2,2,2-trifluoroethyl)-7H-pyrrolo [2,3-d]pyrimidin-2-amine] |
| 62.2 nM | COc1nc(NC2CCC(F)(F)CC2)nc2[nH]cc(-c3cnc4nc(C)n(CC(F)F)c4c3)c12 [Compound 2272, N-(4,4-Difluorocyclohexyl)-5-(1-(2,2-difluoroethyl)-2-methyl-1H-imidazo[4,5-b]pyridin-6-yl)-4-methoxy-7H-pyrrolo[2,3-d]pyrimidin-2-amine] |
| 458 nM | 5-(1-(2,2-Difluoroethyl)-1H-benzo[d][1,2,3]triazol-6-yl)-4-methoxy-N-(cis-4-(trifluoromethoxy)cyclohexyl)-7H-pyrrolo[2,3-d]pyrimidin-2-amine [Compound 2297] |
| 9.4 nM | N-(4,4-Difluorocyclohexyl)-4-methoxy-5-(pyrazolo[1,5-a]pyrimidin-5-yl)-7H-pyrrolo[2,3-d]pyrimidin-2-amine [Compound 2223] |
| 26.1 nM | 5-(3-Chloropyrazolo[1,5-a]pyrimidin-5-yl)-N-(2-fluoro-2-methylpropyl)-7H-pyrrolo[2,3-d]pyrimidin-2-amine [Compound 1680] |
| 52.3 nM | CN1CCN(c2ccc(CNc3ncc4c(-c5ccn6ncnc6c5)c[nH]c4n3)cn2)CC1 [Compound 808, 5-([1,2,4]Triazolo[1,5-a]pyridin-7-yl)-N-((6-(4-methylpiperazin-1-yl)pyridin-3-yl)methyl)-7H-pyrrolo[2,3-d]pyrimidin-2-amine] |
| 117 nM | COc1nc(NCC(C)(C)F)nc2[nH]cc(-c3ccc4nccn4n3)c12 [Compound 2298, N-(2-Fluoro-2-methylpropyl)-5-(imidazo[1,2-b]pyridazin-6-yl)-4-methoxy-7H-pyrrolo[2,3-d]pyrimidin-2-amine] |
| 19.2 nM | FC(F)O[C@H]1CC[C@H](Nc2ncc3c(-c4ccn5nccc5c4)c[nH]c3n2)CC1 [Compound 3278, N-(trans-4-(Difluoromethoxy)cyclohexyl)-5-(pyrazolo[1,5-a]pyridin-5-yl)-7H-pyrrolo[2,3-d]pyrimidin-2-amine] |
| 1.6 nM | CCNc1ncc2c(-c3ccc4nccn4c3)c[nH]c2n1 [Compound 107, N-Ethyl-5-(imidazo[1,2-a]pyridin-6-yl)-7H-pyrrolo[2,3-d]pyrimidin-2-amine] |
| 5.6 nM | Cc1nc2ncc(-c3c[nH]c4nc(NCC(C)C)ncc34)cc2n1C(C)C [Compound 594, N-Isobutyl-5-(1-isopropyl-2-methyl-1H-imidazo[4,5-b]pyridin-6-yl)-7H-pyrrolo[2,3-d]pyrimidin-2-amine] |
| 12.9 nM | COc1nc(N[C@@H]2CCOC[C@H]2O)nc2[nH]cc(-c3ccn4nccc4c3)c12 [Compound 2318, (3S,4R)-4-((4-Methoxy-5-(pyrazolo[1,5-a]pyridin-5-yl)-7H-pyrrolo[2,3-d]pyrimidin-2-yl)amino)tetrahydro-2H-pyran-3-ol] |
